Test results taken from patent publication US10399940B2, “Substituted pyrrolidines and methods of use” (AbbVie S.à.r.l., priority 2016, dated 2019).
Where two headings read alike, the source gives them in different places.

Target: T1, F508delCFTR (Homo sapiens, UniProt P13569, DEL508-508)
T1 construct: expressed in transfected cells; host or cells: CFBE41o- (human lung derived epithelial cell line), doxycycline-inducible expression
Test: Cell Surface Expression-Horse Radish Peroxidase (CSE-HRP) assay
Assay type: cell-based
Conditions: CFBE41o-F508delCFTR-HRP cells; for Maximum % activity (with co-corrector): with co-corrector (2 μM); for Maximum % activity (with co-corrector) / Maximum % activity (without co-corrector): normalized to on-plate positive control, highest concentration 20 μM
In short: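 CFBE41o- cells expressed F508delCFTR with HRP in the fourth exofacial loop, induced by 0.5 μg/mL doxycycline for 72 h at 37 °C. Compounds alone or with 2 μM co-corrector ran 18–24 h at 33 °C, 8-point 3-fold from 20 μM. Washed-cell luminol luminescence was normalized to DMSO and positive control, fitted sigmoidally for EC50 (three plates).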

[1] = test compound without co-corrector, 18-24 hours at 33° C., read-out: EC50 (without co-corrector)
[2] = with co-corrector (2 μM of 3-[(2R,4R)-4-({[1-(2,2-difluoro-1,3-benzodioxol-5-yl)cyclopropyl]carbonyl}amino)-7-methoxy-3,4-dihydro-2H-chromen-2-yl]benzoic acid), read-out: EC50 (with co-corrector)

T1 sequence (P13569 with tags, fused parts or gaps DEL508-508): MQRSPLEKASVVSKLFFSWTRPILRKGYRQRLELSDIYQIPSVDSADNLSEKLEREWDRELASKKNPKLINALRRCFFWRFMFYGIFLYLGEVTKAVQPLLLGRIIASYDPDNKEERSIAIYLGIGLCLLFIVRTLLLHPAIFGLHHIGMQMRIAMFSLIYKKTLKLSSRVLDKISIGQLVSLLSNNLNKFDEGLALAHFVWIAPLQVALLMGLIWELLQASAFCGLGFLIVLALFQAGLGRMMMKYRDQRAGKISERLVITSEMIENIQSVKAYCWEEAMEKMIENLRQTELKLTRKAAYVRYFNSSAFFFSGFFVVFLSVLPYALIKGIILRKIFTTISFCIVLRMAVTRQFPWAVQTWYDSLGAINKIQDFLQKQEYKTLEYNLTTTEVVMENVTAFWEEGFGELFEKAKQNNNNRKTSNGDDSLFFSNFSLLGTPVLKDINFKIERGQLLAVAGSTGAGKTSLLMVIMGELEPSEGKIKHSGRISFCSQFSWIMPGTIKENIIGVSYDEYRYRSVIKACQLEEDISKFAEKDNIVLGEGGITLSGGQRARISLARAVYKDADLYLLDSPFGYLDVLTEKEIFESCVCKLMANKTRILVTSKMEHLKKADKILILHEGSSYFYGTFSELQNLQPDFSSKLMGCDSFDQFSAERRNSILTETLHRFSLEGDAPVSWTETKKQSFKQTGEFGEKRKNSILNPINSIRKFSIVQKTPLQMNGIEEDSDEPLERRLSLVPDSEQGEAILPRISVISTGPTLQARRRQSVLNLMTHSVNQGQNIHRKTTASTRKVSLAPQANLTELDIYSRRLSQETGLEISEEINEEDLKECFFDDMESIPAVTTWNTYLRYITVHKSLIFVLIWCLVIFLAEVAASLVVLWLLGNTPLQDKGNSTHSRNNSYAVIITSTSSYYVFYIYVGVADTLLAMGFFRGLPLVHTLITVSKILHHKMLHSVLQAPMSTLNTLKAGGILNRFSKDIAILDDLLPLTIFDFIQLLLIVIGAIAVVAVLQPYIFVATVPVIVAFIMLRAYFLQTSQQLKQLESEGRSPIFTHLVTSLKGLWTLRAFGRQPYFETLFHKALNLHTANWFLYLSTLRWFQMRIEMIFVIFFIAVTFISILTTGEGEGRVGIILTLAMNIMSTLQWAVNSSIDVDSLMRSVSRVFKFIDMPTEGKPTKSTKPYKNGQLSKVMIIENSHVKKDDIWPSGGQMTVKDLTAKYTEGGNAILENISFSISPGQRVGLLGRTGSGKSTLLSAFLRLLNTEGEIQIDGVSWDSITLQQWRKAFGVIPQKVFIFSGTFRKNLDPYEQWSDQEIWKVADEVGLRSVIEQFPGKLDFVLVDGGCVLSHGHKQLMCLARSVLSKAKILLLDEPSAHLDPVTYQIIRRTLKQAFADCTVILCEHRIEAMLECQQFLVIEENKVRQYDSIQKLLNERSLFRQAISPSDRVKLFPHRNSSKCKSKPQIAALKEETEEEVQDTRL

Row | SMILES | EC50 [1] | EC50 [2] | Maximum % activity (with co-corrector) | Maximum % activity (without co-corrector)
1 | COc1ncc(-c2ccc(C)cc2)cc1CO[C@H]1[C@H](C(C)(C)C)[C@@H](C(=O)O)N(C(=O)OC(C)C)[C@H]1c1ccccc1 [Example 71, (2S,3R,4S,5S)-3-tert-butyl-4-{[2-methoxy-5-(4-methylphenyl)pyridin-3-yl]methoxy}-5-phenyl-1-{[(propan-2-yl)oxy]carbonyl}pyrrolidine-2-carboxylic acid] | 1000 to 10000 nM | 1000 to 10000 nM | +++ (≥350) | + (<100)
2 | COc1nc(C(C)(C)C)ccc1CO[C@H]1[C@H](C(C)(C)C)[C@@H](C(=O)O)N(C(=O)OC(C)C)[C@H]1c1ccccc1 [Example 72, (2S,3R,4S,5S)-3-tert-butyl-4-[(6-tert-butyl-2-methoxypyridin-3-yl)methoxy]-5-phenyl-1-{[(propan-2-yl)oxy]carbonyl}pyrrolidine-2-carboxylic acid] | 1000 to 10000 nM | 1000 to 10000 nM | +++ (≥350) | + (<100)
3 | COc1ncc(C(F)(F)F)cc1CO[C@H]1[C@H](C(C)(C)C)[C@@H](C(=O)O)N(C(=O)OC(C)C)[C@H]1c1ccccc1F [Example 73, (2S,3R,4S,5S)-3-tert-butyl-5-(2-fluorophenyl)-4-{[2-methoxy-5-(trifluoromethyl)pyridin-3-yl]methoxy}-1-{[(propan-2-yl)oxy]carbonyl}pyrrolidine-2-carboxylic acid] | 1000 to 10000 nM | < 1000 nM | +++ (≥350) | ++ (≥100 and <200)
4 | COc1ncc(C(C)(C)C)cc1CO[C@H]1[C@H](C(C)(C)C)[C@@H](C(=O)O)N(C(=O)OC(C)C)[C@H]1c1ccccc1F [Example 74, (2S,3R,4S,5S)-3-tert-butyl-4-[(5-tert-butyl-2-methoxypyridin-3-yl)methoxy]-5-(2-fluorophenyl)-1-{[(propan-2-yl)oxy]carbonyl}pyrrolidine-2-carboxylic acid] | 1000 to 10000 nM | 1000 to 10000 nM | +++ (≥350) | ++ (≥100 and <200)
5 | COc1ncc(C(C)(C)C)cc1CO[C@@H]1[C@H](C(C)(C)C)[C@@H](C(=O)O)N(C(=O)OC(C)C)[C@H]1c1ccccc1F [Example 75, (2S,3R,4R,5S)-3-tert-butyl-4-[(5-tert-butyl-2-methoxypyridin-3-yl)methoxy]-5-(2-fluorophenyl)-1-{[(propan-2-yl)oxy]carbonyl}pyrrolidine-2-carboxylic acid] | > 10000 nM | > 10000 nM | + (<150) | + (<100)
6 | COc1ncc(Br)cc1CO[C@H]1[C@H](C(C)(C)C)[C@@H](C(=O)O)N(C(=O)OC(C)C)[C@H]1c1ccccc1F [Example 76, (2S,3R,4S,5S)-4-[(5-bromo-2-methoxypyridin-3-yl)methoxy]-3-tert-butyl-5-(2-fluorophenyl)-1-{[(propan-2-yl)oxy]carbonyl}pyrrolidine-2-carboxylic acid] | 1000 to 10000 nM | 1000 to 10000 nM | +++ (≥350) | ++ (≥100 and <200)
7 | COc1ncc(C2CCC2)cc1CO[C@H]1[C@H](C(C)(C)C)[C@@H](C(=O)O)N(C(=O)OC(C)C)[C@H]1c1ccccc1F [Example 77, (2S,3R,4S,5S)-3-tert-butyl-4-[(5-cyclobutyl-2-methoxypyridin-3-yl)methoxy]-5-(2-fluorophenyl)-1-{[(propan-2-yl)oxy]carbonyl}pyrrolidine-2-carboxylic acid] | 1000 to 10000 nM | 1000 to 10000 nM | +++ (≥350) | ++ (≥100 and <200)
8 | COc1ccc(C(F)(F)F)cc1CO[C@H]1[C@H](C(C)(C)C)[C@@H](C(=O)O)N(C(=O)OC(C)C)[C@H]1c1cccnc1OC(C)C [Example 78, (2S,3R,4S,5S)-3-tert-butyl-4-{[2-methoxy-5-(trifluoromethyl)phenyl]methoxy}-1-{[(propan-2-yl)oxy]carbonyl}-5-{2-[(propan-2-yl)oxy]pyridin-3-yl}pyrrolidine-2-carboxylic acid] | 1000 to 10000 nM | 1000 to 10000 nM | +++ (≥350) | ++ (≥100 and <200)

More lines, now with the values ahead:

Row | EC50 [1] | EC50 [2] | Maximum % activity (with co-corrector) | Maximum % activity (without co-corrector) | SMILES
9 | < 1000 nM | < 1000 nM | +++ (≥350) | ++ (≥100 and <200) | COc1ncc(C(C)(C)C)cc1CO[C@H]1[C@H](C(C)(C)C)[C@@H](C(=O)O)N(C(=O)C2CCCCC2)[C@H]1c1ccccc1F [Example 62, (2S,3R,4S,5S)-3-tert-butyl-4-[(5-tert-butyl-2-methoxypyridin-3-yl)methoxy]-1-(cyclohexanecarbonyl)-5-(2-fluorophenyl)pyrrolidine-2-carboxylic acid]
10 | 1000 to 10000 nM | 1000 to 10000 nM | +++ (≥350) | ++ (≥100 and <200) | COc1ncc(C(C)(C)C)cc1CO[C@H]1[C@H](C(C)(C)C)[C@@H](C(=O)O)N(C(=O)OC(C)C)[C@H]1c1ccccc1 [Example 63, (2S,3R,4S,5S)-3-tert-butyl-4-[(5-tert-butyl-2-methoxypyridin-3-yl)methoxy]-5-phenyl-1-{[(propan-2-yl)oxy]carbonyl}pyrrolidine-2-carboxylic acid]
11 | 1000 to 10000 nM | 1000 to 10000 nM | +++ (≥350) | ++ (≥100 and <200) | COc1ncc(C(F)(F)F)cc1CO[C@H]1[C@H](C(C)(C)C)[C@@H](C(=O)O)N(C(=O)OC(C)C)[C@H]1c1ccccc1 [Example 64, (2S,3R,4S,5S)-3-tert-butyl-4-{[2-methoxy-5-(trifluoromethyl)pyridin-3-yl]methoxy}-5-phenyl-1-{[(propan-2-yl)oxy]carbonyl}pyrrolidine-2-carboxylic acid]
12 | < 1000 nM | < 1000 nM | +++ (≥350) | + (<100) | COc1ncc(-c2ccc(C)cc2F)cc1CO[C@H]1[C@H](C(C)(C)C)[C@@H](C(=O)O)N(C(=O)OC(C)C)[C@H]1c1ccccc1 [Example 65, (2S,3R,4S,5S)-3-tert-butyl-4-{[5-(2-fluoro-4-methylphenyl)-2-methoxypyridin-3-yl]methoxy}-5-phenyl-1-{[(propan-2-yl)oxy]carbonyl}pyrrolidine-2-carboxylic acid]
13 | < 1000 nM | 1000 to 10000 nM | +++ (≥350) | + (<100) | COc1ncc(-c2ccccc2F)cc1CO[C@H]1[C@H](C(C)(C)C)[C@@H](C(=O)O)N(C(=O)OC(C)C)[C@H]1c1ccccc1 [Example 66, (2S,3R,4S,5S)-3-tert-butyl-4-{[5-(2-fluorophenyl)-2-methoxypyridin-3-yl]methoxy}-5-phenyl-1-{[(propan-2-yl)oxy]carbonyl}pyrrolidine-2-carboxylic acid]
14 | < 1000 nM | < 1000 nM | +++ (≥350) | + (<100) | COc1ncc(-c2ccc(F)cc2C)cc1CO[C@H]1[C@H](C(C)(C)C)[C@@H](C(=O)O)N(C(=O)OC(C)C)[C@H]1c1ccccc1 [Example 67, (2S,3R,4S,5S)-3-tert-butyl-4-{[5-(4-fluoro-2-methylphenyl)-2-methoxypyridin-3-yl]methoxy}-5-phenyl-1-{[(propan-2-yl)oxy]carbonyl}pyrrolidine-2-carboxylic acid]
15 | < 1000 nM | 1000 to 10000 nM | +++ (≥350) | + (<100) | COc1ncc(-c2ccc(F)cc2F)cc1CO[C@H]1[C@H](C(C)(C)C)[C@@H](C(=O)O)N(C(=O)OC(C)C)[C@H]1c1ccccc1 [Example 68, (2S,3R,4S,5S)-3-tert-butyl-4-{[5-(2,4-difluorophenyl)-2-methoxypyridin-3-yl]methoxy}-5-phenyl-1-{[(propan-2-yl)oxy]carbonyl}pyrrolidine-2-carboxylic acid]
16 | 1000 to 10000 nM | 1000 to 10000 nM | ++ (≥150 and <350) | + (<100) | COc1ncc(C2=CCOCC2)cc1CO[C@H]1[C@H](C(C)(C)C)[C@@H](C(=O)O)N(C(=O)OC(C)C)[C@H]1c1ccccc1 [Example 69, (2S,3R,4S,5S)-3-tert-butyl-4-{[5-(3,6-dihydro-2H-pyran-4-yl)-2-methoxypyridin-3-yl]methoxy}-5-phenyl-1-{[(propan-2-yl)oxy]carbonyl}pyrrolidine-2-carboxylic acid]
17 | 1000 to 10000 nM | 1000 to 10000 nM | ++ (≥150 and <350) | + (<100) | COc1cccc(-c2cnc(OC)c(CO[C@H]3[C@H](C(C)(C)C)[C@@H](C(=O)O)N(C(=O)OC(C)C)[C@H]3c3ccccc3)c2)c1 [Example 70, (2S,3R,4S,5S)-3-tert-butyl-4-{[2-methoxy-5-(3-methoxyphenyl)pyridin-3-yl]methoxy}-5-phenyl-1-{[(propan-2-yl)oxy]carbonyl}pyrrolidine-2-carboxylic acid]
